Columns and labels:
[1] = tested on: K1 culture-adapted P. falciparum strain; test: Antiplasmodial evaluation, SYBR Green I fluorescence-based drug susceptibility test; assay type: cell-based; conditions: for EC50: Plasmodium falciparum, multi-resistant K1 strain of P. falciparum, 72 h incubation, three independent experiments, read-out: EC50 PfK1; for SI (selectivity index): from CC50 HepG2 and EC50 PfK1
Protocol: […]. Parasitemia was maintained daily between 1 and 3%. The P. falciparum drug susceptibility test was carried out by comparing quantities of DNA in treated and control cultures of parasite in human erythrocytes according to a SYBR Green I fluorescence-based method[19] using a 96-well fluorescence plate reader. Compounds previously dissolved in DMSO (final concentration less than 0.5% v/v) were incubated in a total assay volume of 200 μL (RPMI, 2% hematocrit and 0.4% parasitemia) for 72 h in a humidified atmosphere (10% O2 and 5% CO2) at 37 °C in 96-well flat bottom plates. Duplicate assays were performed for each sample. After incubation, plates were frozen at […] for 24 h. Then, the frozen plates were thawed for 1 h at 37 °C. Fifteen μL of each sample were transferred to 96-well flat bottom non-sterile black plates (Greiner Bio-one, Kremsmünster, Austria), already containing 15 μL of the SYBR Green I lysis buffer (2X SYBR Green I, 20 mM Tris base pH 7.5, 20 mM EDTA, 0.008% w/v saponin, 0.08% w/v Triton X-100). […] Plates were incubated for 15 min at 37 °C and then read on a TECAN Infinite F-200 spectrophotometer with excitation and emission wavelengths at 485 and 535 nm, respectively.

[2] = Cytotoxic evaluation, MTT assay; assay type: cell-based; conditions: HepG2 cells, human HepG2 cell line, three independent experiments
Protocol: The HepG2 cell line was maintained at 37 °C, 5% CO2, at 90% humidity in […] supplemented with 10% fetal bovine serum, 1% L-glutamine (200 mM), and penicillin (100 U per mL)/streptomycin (100 μg mL^−1) (complete RPMI medium). The cytotoxicity of the tested molecules on the HepG2 (hepatocarcinoma cell line purchased from ATCC, ref HB-8065) cell line was assessed according to the method of Mosmann[20] with slight modifications. Briefly, 5 × 10^3 cells in 100 μL of complete medium were inoculated into each well of 96-well plates and incubated at 37 °C in humidified 5% CO2. After 24 h incubation, 100 μL of medium with various product concentrations dissolved in DMSO (final concentration less than 0.5% v/v) were added and the plates were incubated for 72 h at 37 °C. Triplicate assays were performed for each sample. Each plate was then microscopically examined for possible precipitate formation before the medium was aspirated from the wells. Next, 100 μL of MTT (3-(4,5-dimethyl-2-thiazolyl)-2,5-diphenyl-2H-tetrazolium bromide) solution (0.5 mg mL^−1 in medium without FBS) was added to each well. Cells were incubated for 2 h at 37 °C. After this time, the MTT solution was removed and DMSO (100 μL) was added to dissolve the resulting blue formazan crystals. Plates were shaken vigorously (700 rpm) for 10 min. The absorbance was measured at 570 nm with 630 nm as a reference wavelength using a BIO-TEK ELx808 Absorbance Microplate Reader (LabX, Midland, ON, Canada). DMSO was used as a blank and doxorubicin (purchased from Sigma Aldrich) as a positive control. Cell viability was calculated as a percentage of control (cells incubated without the compound). […] CC50 values to represent the mean value calculated from three independent experiments.

SMILES | EC50 [1] [µM] | SI (selectivity index) [1] | melting point [°C] | CC50 at 72 h [2] [µM]
CC(C)(C)Nc1nc2cc(N3CCOCC3)sc2c(=O)[nH]1 [Compound 1f, 2-tert-Butylamino-6-(morpholin-4-yl)thieno[3,2-d]pyrimidin-4(3H)-one] | 4.5 ± 1.1 | >11.1 | 264 to 266 | > 50
Cc1ccc(C#Cc2cc3nc(NC(C)(C)C)[nH]c(=O)c3s2)cc1 [Compound 2b, 2-tert-Butylamino-6-[(4-methylphenyl)ethynyl]thieno[3,2-d]pyrimidin-4(3H)-one] | 2.35 ± 0.38 | >5.3 | 235 to 237 | > 12.5
Cc1ccc(C#Cc2cc3nc(NC(C)C)[nH]c(=O)c3s2)cc1 [Compound 2c, 6-[(4-methylphenyl)ethynyl]-2-(propan-2-ylamino)thieno[3,2-d]pyrimidin-4(3H)-one] | 4.6 ± 1 | 0.7 | 277 to 279 | 3.1 ± 0.6
CC(C)(C)Nc1nc2cc(C#CC3CC3)sc2c(=O)[nH]1 [Compound 2e, 2-tert-Butylamino-6-(cyclopropylethynyl)thieno[3,2-d]pyrimidin-4(3H)-one] | 1.9 ± 0.6 | 10.9 | 158 to 160 | 20.8 ± 1.4
CC(C)Nc1nc2cc(C#Cc3ccccc3)sc2c(=O)[nH]1 [Compound 2h, 6-(phenylethynyl)-2-(propan-2-ylamino)thieno[3,2-d]pyrimidin-4(3H)-one] | 2.8 ± 1 | >4.5 | 276 to 278 | > 12.5
CC(C)Nc1nc2cc(Br)sc2c(=O)[nH]1 [Compound 3, 6-Bromo-2-(propan-2-ylamino)thieno[3,2-d]pyrimidin-4(3H)-one] | > 50 | <1.8 | 240 to 242 | 89.1 ± 9.7
COC(=O)c1ccc(-c2cc3nc(NC(C)(C)C)[nH]c(=O)c3s2)cc1 [Compound 4a, Methyl-4-(2-tert-butylamino-4-oxo-3,4-dihydrothieno[3,2-d]pyrimidin-6-yl)benzoate] | 2.5 ± 0.9 | >5.0 | > 300 | > 12.5
CC(C)(C)Nc1nc2cc(-c3ccc(F)c(Cl)c3)sc2c(=O)[nH]1 [Compound 4e, 2-tert-Butylamino-6-(3-chloro-4-fluorophenyl)thieno[3,2-d]pyrimidin-4(3H)-one] | 2 ± 0.9 | >6.3 | 259 to 261 | > 12.5
CC(C)Nc1nc2cc(-c3ccc(F)c(Cl)c3)sc2c(=O)[nH]1 [Compound 4f, 2-(Propan-2-ylamino)-6-(3-chloro-4-fluorophenyl)thieno[3,2-d]pyrimidin-4(3H)-one] | 3.6 ± 1.2 | >1.7 | > 300 | > 6.25
CC(C)(C)Nc1nc2cc(-c3ccc(N4CCOCC4)cc3)sc2c(=O)[nH]1 [Compound 4g, 2-tert-Butylamino-6-[4-(morpholin-4-yl)phenyl]thieno[3,2-d]pyrimidin-4(3H)-one] | 2.4 ± 0.9 | 3.3 | > 300 | 7.9 ± 1.3
CSc1ccc(-c2cc3nc(NC(C)(C)C)[nH]c(=O)c3s2)cc1 [Compound 4j, 2-tert-Butylamino-6-[4-(methylsulfanyl)phenyl]thieno[3,2-d]pyrimidin-4(3H)-one] | 1 ± 0.3 | >12.5 | 272 to 274 | > 12.5
CC(C)(C)Nc1nc2cc(-c3ccc(S(N)(=O)=O)cc3)sc2c(=O)[nH]1 [Compound 4l, 4-(2-tert-Butylamino-4-oxo-3,4-dihydrothieno[3,2-d]pyrimidin-6-yl)benzenesulfonamide] | > 12.5 |  | > 300 | > 6.25
CC(C)(C)Nc1nc2cc(-c3ccc(S(=O)(=O)N4CCOCC4)cc3)sc2c(=O)[nH]1 [Compound 4m, 2-tert-Butylamino-6-[4-(morpholin-4-ylsulfonyl)phenyl]thieno[3,2-d]pyrimidin-4(3H)-one] | 5.1 ± 2.6 | >2.5 | > 300 | > 12.5
CC(C)(C)Nc1nc2cc(-c3cnc(N4CCOCC4)nc3)sc2c(=O)[nH]1 [Compound 4n, 2-tert-Butylamino-6-[2-(morpholin-4-yl)pyrimidin-5-yl]thieno[3,2-d]pyrimidin-4(3H)-one] | 2.1 ± 0.6 | 12.6 | > 300 | 26.4 ± 4.6
CN1CCN(c2ncc(-c3cc4nc(NC(C)(C)C)[nH]c(=O)c4s3)cn2)CC1 [Compound 4o, 2-tert-Butylamino-6-[2-(4-methylpiperazin-1-yl)pyrimidin-5-yl]thieno[3,2-d]pyrimidin-4(3H)-one] | 4.4 ± 1 | 2.5 | 289 to 291 | 11.2 ± 1.3
CC(C)(C)Nc1nc2cc(-c3ccc(N)cc3)sc2c(=O)[nH]1 [Compound 4p, 6-(4-aminophenyl)-2-tert-butylaminothieno[3,2-d]pyrimidin-4(3H)-one] | 3.5 ± 1.2 | 0.7 | 259 to 261 | 2.5 ± 1
CC(=O)Nc1ccc(-c2cc3nc(NC(C)(C)C)[nH]c(=O)c3s2)cc1 [Compound 4r, N-[4-(2-tert-butylamino-4-oxo-3,4-dihydrothieno[3,2-d]pyrimidin-6-yl)phenyl]acetamide] | 3.9 ± 1.1 | <0.1 | > 300 | 0.16 ± 0.04
CC(C)(C)Nc1nc2cc(-c3ccc(S(C)(=N)=O)cc3)sc2c(=O)[nH]1 (centres unmarked) [Compound 4s, 2-tert-Butylamino-6-[4-(methylsulfonimidoyl)phenyl]thieno[3,2-d]pyrimidin-4(3H)-one] | > 12.5 | <5.1 | 251 to 253 | 63.3 ± 14.6

— PMC9264115, “Pd-catalyzed C–C and C–N cross-coupling reactions in 2-aminothieno[3,2-d]pyrimidin-4(3H)-one series for antiplasmodial pharmacomodulation” (RSC Advances, 2022)
